Source: patent US20260209233A1, “ANNULATED PYRIDAZINE DERIVATIVE” (Tenvie Therapeutics, Inc., priority 2022, published 2026)
Counter-ions that a name gives are not always drawn.

Biological target: T1, NLRP3 inflammasome (Homo sapiens, UniProt Q96P20)
T1 construct: endogenous in cells; host or cells: THP-1 cells, PMA-differentiated and stimulated with LPS and ATP
Experiment: THP-1 IL-1β production inhibition test
Assay type: cell-based
Settings: PMA-treated THP-1 cells, LPS 50 ng/ml + ATP 5 mM, 2 hours, IL-1β in supernatant by ELISA
Experimental: Test Example 1: THP-1 IL-1β Production Inhibition Test
PMA (phorbol myristate acetate, SIGMA, P1585) was added to THP-1 cells in an amount of 50 ng/mL to culture the cells for 2 days at 37° C. The culture medium was replaced with a serum-free RPMI-1640 medium, and a compound with a known concentration was added thereto to culture the cells at 37° C. for 15 minutes. LPS (Lipopolysaccharide, SIMGA, L2880) and ATP (Adenosine triphosphate, SIGMA, A2383) were added so that final concentrations become 50 ng/ml and 5 mM, respectively, followed by culturing at 37° C. for 2 hours. The supernatants were collected to measure the concentrations of IL-1β by ELISA (DuoSet ELISA human IL-1β, R&D Systems, DY201). The IL-1β concentrations were plotted against log concentrations of test compounds, and an IC50 value was calculated by sigmoid Emax model nonlinear regression analysis.
Example compounds were confirmed to inhibit NLRP3 inflammasome activation and IL-1β production.

T1 sequence (Q96P20 whole entry): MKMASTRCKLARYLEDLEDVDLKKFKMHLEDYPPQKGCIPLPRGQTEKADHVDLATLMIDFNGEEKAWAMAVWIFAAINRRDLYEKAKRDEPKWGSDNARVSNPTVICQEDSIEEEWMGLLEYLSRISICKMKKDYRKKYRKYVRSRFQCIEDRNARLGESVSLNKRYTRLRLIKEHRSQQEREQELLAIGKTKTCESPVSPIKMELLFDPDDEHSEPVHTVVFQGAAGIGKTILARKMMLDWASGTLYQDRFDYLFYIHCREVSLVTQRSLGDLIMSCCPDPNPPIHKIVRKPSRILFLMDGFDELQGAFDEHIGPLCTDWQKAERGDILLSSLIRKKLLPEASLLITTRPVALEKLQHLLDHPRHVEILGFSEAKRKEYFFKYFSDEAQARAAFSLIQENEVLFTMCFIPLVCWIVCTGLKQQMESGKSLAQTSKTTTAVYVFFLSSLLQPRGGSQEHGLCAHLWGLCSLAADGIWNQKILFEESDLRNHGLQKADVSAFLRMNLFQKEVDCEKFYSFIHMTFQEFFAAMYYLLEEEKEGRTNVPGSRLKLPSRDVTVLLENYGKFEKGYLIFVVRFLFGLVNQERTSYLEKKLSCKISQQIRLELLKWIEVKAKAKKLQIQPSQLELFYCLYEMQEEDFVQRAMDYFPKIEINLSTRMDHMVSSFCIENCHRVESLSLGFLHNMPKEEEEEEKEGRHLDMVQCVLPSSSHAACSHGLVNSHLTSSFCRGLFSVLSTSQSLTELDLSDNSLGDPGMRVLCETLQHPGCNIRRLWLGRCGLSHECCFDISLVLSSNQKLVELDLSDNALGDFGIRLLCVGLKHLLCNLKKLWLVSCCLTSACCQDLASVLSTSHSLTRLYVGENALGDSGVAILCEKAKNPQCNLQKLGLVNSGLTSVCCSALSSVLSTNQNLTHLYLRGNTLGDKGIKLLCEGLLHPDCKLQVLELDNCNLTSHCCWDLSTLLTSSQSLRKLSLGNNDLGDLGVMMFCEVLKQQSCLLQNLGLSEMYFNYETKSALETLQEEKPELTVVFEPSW

**Q.** How did the IC50 turn out when `Cc1c(-c2ccc(C(F)(F)F)cc2O)nnc2c1CCCN2[C@@H]1CCCN(C2COC2)C1` [Example 9] was run?
**A.** The IC50 was 35 nM.

**Q.** For `Cc1c(-c2ccc(OC(F)F)cc2O)nnc2c1COCCN2[C@@H]1CCCC[C@H]1O` [Example 30, 5-(difluoromethoxy)-2-{9-[(1R,2R)-2-hydroxycyclohexyl]-4-methyl-5,7,8,9-tetrahydropyridazino[3,4-e][1,4]oxaazepin-3-yl}phenol], which IC50 is on record?
**A.** The IC50 was 9.5 nM.

**Q.** `Cc1c(-c2ccc(OC(F)(F)F)cc2O)nnc2c1CCCN2[C@@H]1CCCN(C)C1` [Example 10] was tested. Which IC50 did it give?
**A.** The IC50 was 49 nM.

**Q.** With `Cc1c(-c2ccc(C(F)(F)F)cc2O)nnc2c1CCCN2[C@@H]1CCCN(C)C1=O` [Example 14] as the molecule, how does the IC50 read?
**A.** Its IC50 is 22 nM.

**Q.** How did the IC50 turn out when `Cc1c(-c2ccc(Cl)cc2O)nnc2c1COCCN2[C@@H]1CCCC[C@H]1O` [Example 19] was run?
**A.** Its IC50 is 30 nM.

**Q.** `Cc1c(-c2ccc(C(F)(F)F)cc2O)nnc2c1CCCN2[C@@H]1CCN(C)C[C@H]1O` [Example 16] was tested. Which IC50 did it give?
**A.** The IC50 was 1900 nM.

**Q.** For `Cc1c(-c2ccc(C(F)(F)F)cc2O)nnc2c1CN(C)CN2[C@@H]1CCCC[C@H]1O` [Example 36, 2-{8-[(1R,2R)-2-hydroxycyclohexyl]-4,6-dimethyl-5,6,7,8-tetrahydropyrimido[4,5-c]pyridazin-3-yl}-5-(trifluoromethyl)phenol], which IC50 is on record?
**A.** The IC50 was 11 nM.

**Q.** For `Cc1c(-c2ccc(C(F)(F)F)cc2O)nnc2c1CCCN2[C@@H]1CCCN(CCO)C1` [Example 27, 2-{8-[(3R)-1-(2-hydroxyethyl)piperidin-3-yl]-4-methyl-5,6,7,8-tetrahydropyrid[2,3-c]pyridazin-3-yl}-5-(trifluoromethyl)phenol dihydrochloride], which IC50 is on record?
**A.** Its IC50 is 42 nM.

**Q.** Which IC50 does the source give for `Cc1c(-c2ccc(OC(F)F)cc2O)nnc2c1CCN2[C@H]1CCNC1=O` [Example 45, (3S)-3-{3-[4-(difluoromethoxy)-2-hydroxyphenyl]-4-methyl-5,6-dihydro-7H-pyrrolo[2,3-c]pyridazin-7-yl}pyrrolidin-2-one] here?
**A.** Its IC50 is 28 nM.

**Q.** For `COc1ccc(-c2nnc3c(c2C)COCCN3[C@@H]2CCCN(C)C2)c(O)c1` [Example 6, 5-methoxy-2-{4-methyl-9-[(3R)-1 methylpiperidin-3-yl]-5,7,8,9-tetrahydropyridazino[3,4-e][1,4]oxaazepin-3-yl}phenol], which IC50 is on record?
**A.** Its IC50 is 14 nM.

**Q.** For `Cc1c(-c2ccc(C(F)(F)F)cc2O)nnc2c1CN(C)[C@H](C)CN2[C@@H]1CCCC[C@H]1O` [Example 42], which IC50 is on record?
**A.** The IC50 was 60 nM.

**Q.** Which IC50 does the source give for `COC1CCN([C@@H]2CCCC[C@H]2O)c2nnc(-c3ccc(C(F)(F)F)cc3O)c(C)c21` (stereo partly shown) [Example 21] here?
**A.** Its IC50 is 16 nM.

**Q.** How did the IC50 turn out when `Cc1c(-c2ccc(C(F)(F)F)cc2O)nnc2c1CCCN2[C@@H]1CCCN(C2CC2)C1` [Example 31, 2-{8-[(3R)-1-cyclopropylpiperidin-3-yl]-4-methyl-5,6,7,8-tetrahydropyrido[2,3-c]pyridazin-3-yl}-5-(trifluoromethyl)phenol] was run?
**A.** Its IC50 is 12 nM.

**Q.** With `Cc1c(-c2ccc(C(F)(F)F)cc2O)nnc2c1CCN2[C@H]1CCNC1=O` [Example 5, (3S)-3-{3-[2-hydroxy-4-(trifluoromethyl)phenyl]-4-methyl-5,6-dihydro-7H-pyrrolo[2,3-c]pyridazin-7-yl}pyrrolidin-2-one] as the molecule, how does the IC50 read?
**A.** Its IC50 is 13 nM.

**Q.** With `CCN1CCN([C@@H]2CCCC[C@H]2O)c2nnc(-c3ccc(C(F)(F)F)cc3O)c(C)c2C1` [Example 41, 2-{6-ethyl-9-[(1R,2R)-2-hydroxycyclohexyl]-4-methyl-6,7,8,9-tetrahydro-5H-pyridazino[3,4-e][1,4]diazepin-3-yl}-5-(trifluoromethyl)phenol] as the molecule, how does the IC50 read?
**A.** Its IC50 is 26 nM.

**Q.** How did the IC50 turn out when `Cc1cc(C(F)(F)F)cc(O)c1-c1cc2c(nn1)N([C@@H]1CCCC[C@H]1O)CCC2` [Example 18] was run?
**A.** The IC50 was 15 nM.

**Q.** `Cc1c(-c2ccc(C(F)(F)F)cc2O)nnc2c1CCN2C[C@@H](C)O` [Example 20] was tested. Which IC50 did it give?
**A.** Its IC50 is 200 nM.

**Q.** `Cc1c(-c2ccc(C(F)(F)F)cc2O)nnc2c1CCCN2[C@@H]1CCCN(C)C1` [Example 2, 2-{4-methyl-8-[(3R)-1-methylpiperidin-3-yl]-5,6,7,8-tetrahydropyrido[2,3-c]pyridazin-3-yl}-5-(trifluoromethyl)phenol] was tested. Which IC50 did it give?
**A.** Its IC50 is 6.3 nM.

**Q.** `Cc1ccc(-c2nnc3c(c2C)CCCN3[C@@H]2CCCN(C)C2)c(O)c1` [Example 11] was tested. Which IC50 did it give?
**A.** The IC50 was 46 nM.

**Q.** For `CCN1CCC[C@@H](N2CCCc3c2nnc(-c2ccc(C(F)(F)F)cc2O)c3C)C1` [Example 3, 2-{8-[(3R)-1-ethylpiperidin-3-yl]-4-methyl-5,6,7,8-tetrahydropyrid[2,3-c]pyridazin-3-yl}-5-(trifluoromethyl)phenol], which IC50 is on record?
**A.** Its IC50 is 3 nM.

**Q.** For `Cc1c(-c2ccc(C(F)(F)F)cc2O)nnc2c1COCCN2[C@@H]1CCCC[C@H]1O` [Example 4, 2-{9-[(1R,2R)-2-hydroxycyclohexyl]-4-methyl-5,7,8,9-tetrahydropyridazino[3,4-e][1,4]oxaazepin-3-yl}-5-(trifluoromethyl)phenol], which IC50 is on record?
**A.** The IC50 was 6.8 nM.

**Q.** Which IC50 does the source give for `COC(=O)N1CCC[C@@H](N2CCCc3c2nnc(-c2ccc(C(F)(F)F)cc2O)c3C)C1` [Example 32, (3R)-3-{3-[2-hydroxy-4-(trifluoromethyl)phenyl]-4-methyl-6,7-dihydropyrido[2,3-c]pyridazin-8(5H)-yl}piperidine-1-methyl carboxylate] here?
**A.** The IC50 was 96 nM.

**Q.** Which IC50 does the source give for `CC(=O)N1CCN([C@@H]2CCCC[C@H]2O)c2nnc(-c3ccc(C(F)(F)F)cc3O)c(C)c2C1` [Example 40, 1-{9-[(1R,2R)-2-hydroxycyclohexyl]-3-[2-hydroxy-4-(trifluoromethyl)phenyl]-4-methyl-5,7,8,9-tetrahydro-6H-pyridazino[3,4-e][1,4]diazepin-6-yl}ethan-1-one] here?
**A.** The IC50 was 190 nM.

**Q.** For `Cc1c(-c2ccc(C(F)(F)F)cc2O)nnc2c1CCCN2[C@@H]1CCCN(S(C)(=O)=O)C1` [Example 34, 2-{8-[(3R)-1-(methansulfonyl)piperidin-3-yl]-4-methyl-5,6,7,8-tetrahydropyrido[2,3-c]pyridazin-3-yl}-5-(trifluoromethyl)phenol], which IC50 is on record?
**A.** Its IC50 is 37 nM.

**Q.** For `Cc1c(-c2ccc(C(F)(F)F)cc2O)nnc2c1CNC(=O)N2[C@@H]1CCCC[C@H]1O` [Example 37, 8-[(1R,2R)-2-hydroxycyclohexyl]-3-[2-hydroxy-4-(trifluoromethyl)phenyl]-4-methyl-5,8-dihydropyrimido[4,5-c]pyridazin-7 (6H)-one], which IC50 is on record?
**A.** The IC50 was 230 nM.

**Q.** `Cc1c(-c2ccc(C(F)(F)F)cc2O)nnc2c1CCCN2c1cc[nH]n1` [Example 43, 2-[4-methyl-8-(1H-pyrazol-3-yl)-5,6,7,8-tetrahydropyrido[2,3-c]pyridazin-3-yl]-5-(trifluoromethyl)phenol] was tested. Which IC50 did it give?
**A.** Its IC50 is 230 nM.

**Q.** Which IC50 does the source give for `CC(=O)N1CCC[C@@H](N2CCCc3c2nnc(-c2ccc(C(F)(F)F)cc2O)c3C)C1` [Example 8] here?
**A.** Its IC50 is 26 nM.

**Q.** How did the IC50 turn out when `CN[C@@H]1CCCC[C@H]1N1CCCc2c1nnc(-c1ccc(C(F)(F)F)cc1O)c2C` [Example 17] was run?
**A.** The IC50 was 410 nM.

**Q.** `Cc1c(-c2ccc(C(F)(F)F)cc2O)nnc2c1CCCCN2[C@@H]1CCCC[C@H]1O` [Example 12] was tested. Which IC50 did it give?
**A.** The IC50 was 44 nM.

**Q.** How did the IC50 turn out when `Cc1c(-c2ccc(C(F)(F)F)cc2O)nnc2c1CCCN2[C@@H]1CCCN(C(N)=O)C1` [Example 33, (3R)-3-{3-[2-hydroxy-4-(trifluoromethyl)phenyl]-4-methyl-6,7-dihydropyrido[2,3-c]pyridazin-8(5H)-yl}piperidin-1-carboxyamide] was run?
**A.** Its IC50 is 55 nM.

**Q.** For `Cc1c(-c2ccc(C(F)(F)F)cc2O)nnc2c1CCCN2[C@@H]1CCCNC1=O` [Example 13], which IC50 is on record?
**A.** The IC50 was 30 nM.

**Q.** How did the IC50 turn out when `Cc1c(-c2ccc(C(F)(F)F)cc2O)nnc2c1CN(Cc1ccccc1)CCN2[C@@H]1CCCC[C@H]1O` [Example 23] was run?
**A.** Its IC50 is 250 nM.

**Q.** Which IC50 does the source give for `Cc1c(-c2ccc(C(F)(F)F)cc2O)nnc2c1CN(C)CCN2[C@@H]1CCCC[C@H]1O` [Example 7, 2-{9-[(1R,2R)-2-hydroxycyclohexyl]-4,6-dimethyl-6,7,8,9-tetrahydro-5H-pyridazino[3,4-e][1,4]diazepin-3-yl}-5-(trifluoromethyl)phenol] here?
**A.** The IC50 was 16 nM.

**Q.** With `Cc1c(-c2ccc(OC(F)F)cc2O)nnc2c1CCCN2[C@@H]1CCCC[C@H]1O` [Example 28, 5-(difluoromethoxy)-2-{8-[(1R,2R)-2-hydroxycyclohexyl]-4-methyl-5,6,7,8-tetrahydropyrido[2,3-c]pyridazin-3-yl}phenol] as the molecule, how does the IC50 read?
**A.** Its IC50 is 8.1 nM.

**Q.** `Cc1c(-c2ccc(C(F)(F)F)cc2O)nnc2c1COCCN2[C@@H]1CCCN(CC(F)F)C1` [Example 26] was tested. Which IC50 did it give?
**A.** The IC50 was 14 nM.

**Q.** `Cc1c(-c2ccc(C(F)(F)F)cc2O)nnc2c1CNCCN2[C@@H]1CCCC[C@H]1O` [Example 38, 2-{9-[(1R,2R)-2-hydroxycyclohexyl]-4-methyl-6,7,8,9-tetrahydro-5H-pyridazino[3,4-e][1,4]diazepin-3-yl}-5-(trifluoromethyl)phenol] was tested. Which IC50 did it give?
**A.** Its IC50 is 7.6 nM.

**Q.** With `Cc1c(-c2ccc(C(F)F)cc2O)nnc2c1CN(C)CCN2[C@@H]1CCCC[C@H]1O` [Example 44, 5-(difluoromethyl)-2-{9-[(1R,2R)-2-hydroxycyclohexyl]-4,6-dimethyl-6,7,8,9-tetrahydro-5H-pyridazino[3,4-e][1,4]diazepin-3-yl}phenol] as the molecule, how does the IC50 read?
**A.** Its IC50 is 30 nM.

**Q.** With `Cc1c(-c2ccc(C(F)(F)F)cc2O)nnc2c1CCCN2[C@H]1CNC(=O)C1` [Example 15] as the molecule, how does the IC50 read?
**A.** The IC50 was 780 nM.

**Q.** For `CC(=O)O[C@@H]1CCCC[C@H]1N1CCN(C(C)=O)Cc2c1nnc(-c1ccc(C(F)(F)F)cc1O)c2C` [Example 39, (1R,2R)-2-{6-acetyl-3-[2-hydroxy-4-(trifluoromethyl)phenyl]-4-methyl-5,6,7,8-tetrahydro-9H-pyridazino[3,4-e][1,4]diazepin-9-yl}cyclohexyl acetate], which IC50 is on record?
**A.** The IC50 was 160 nM.

**Q.** With `Cc1c(-c2ccc(C(F)(F)F)cc2O)nnc2c1CCCN2[C@@H]1CC[C@H](C#N)C1` [Example 22] as the molecule, how does the IC50 read?
**A.** The IC50 was 120 nM.
